From patent US10829473B2, “Modulators of the cystic fibrosis transmembrane conductance regulator protein and methods of use” (AbbVie Overseas S.Á.R.L., priority 2017, dated 2020)
Like-named read-outs stand apart in the source and are kept apart here. Marks after values point to notes of the source that are not given here.

Target: T1, F508delCFTR (Homo sapiens, UniProt P13569, DEL508-508)
T1 construct: expressed in transfected cells; host or cells: CFBE41o- human lung derived epithelial cells (CFBE41o-F508delCFTR-HRP), doxycycline-inducible
Experiment: Cell Surface Expression-Horse Radish Peroxidase (CSE-HRP) Assay;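 on EC50 (with co-corrector): co-corrector chromenyl benzoic acid corrector at 2 or 3 µM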;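 on Maximum % activity (without co-corrector): % of on-plate positive control chromenyl benzoic acid corrector at 2 or 3 µM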
Assay type: cell-based
Conditions: for Maximum % activity (with co-corrector) / Emax: maximum at any tested concentration; for Emax: read-out: Maximum % activity (without co-corrector)
Summary of the method: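 Corrector compounds were given as 8-point 3-fold series from 20 or 30 μM, with or without a 2 μM co-corrector, for 18-24 h at 33 °C. Surface HRP was read by luminol luminescence as % of positive control; variable-Hill-slope sigmoidal fitting gave EC50 from triplicate plates.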

[1] = test compound with co-corrector
[2] = test compound with co-corrector, read-out: EC50 (with co-corrector)
[3] = test compound without co-corrector
[4] = test compound without co-corrector, read-out: EC50 (without co-corrector)

T1 sequence (P13569 with tags, fused parts or gaps DEL508-508): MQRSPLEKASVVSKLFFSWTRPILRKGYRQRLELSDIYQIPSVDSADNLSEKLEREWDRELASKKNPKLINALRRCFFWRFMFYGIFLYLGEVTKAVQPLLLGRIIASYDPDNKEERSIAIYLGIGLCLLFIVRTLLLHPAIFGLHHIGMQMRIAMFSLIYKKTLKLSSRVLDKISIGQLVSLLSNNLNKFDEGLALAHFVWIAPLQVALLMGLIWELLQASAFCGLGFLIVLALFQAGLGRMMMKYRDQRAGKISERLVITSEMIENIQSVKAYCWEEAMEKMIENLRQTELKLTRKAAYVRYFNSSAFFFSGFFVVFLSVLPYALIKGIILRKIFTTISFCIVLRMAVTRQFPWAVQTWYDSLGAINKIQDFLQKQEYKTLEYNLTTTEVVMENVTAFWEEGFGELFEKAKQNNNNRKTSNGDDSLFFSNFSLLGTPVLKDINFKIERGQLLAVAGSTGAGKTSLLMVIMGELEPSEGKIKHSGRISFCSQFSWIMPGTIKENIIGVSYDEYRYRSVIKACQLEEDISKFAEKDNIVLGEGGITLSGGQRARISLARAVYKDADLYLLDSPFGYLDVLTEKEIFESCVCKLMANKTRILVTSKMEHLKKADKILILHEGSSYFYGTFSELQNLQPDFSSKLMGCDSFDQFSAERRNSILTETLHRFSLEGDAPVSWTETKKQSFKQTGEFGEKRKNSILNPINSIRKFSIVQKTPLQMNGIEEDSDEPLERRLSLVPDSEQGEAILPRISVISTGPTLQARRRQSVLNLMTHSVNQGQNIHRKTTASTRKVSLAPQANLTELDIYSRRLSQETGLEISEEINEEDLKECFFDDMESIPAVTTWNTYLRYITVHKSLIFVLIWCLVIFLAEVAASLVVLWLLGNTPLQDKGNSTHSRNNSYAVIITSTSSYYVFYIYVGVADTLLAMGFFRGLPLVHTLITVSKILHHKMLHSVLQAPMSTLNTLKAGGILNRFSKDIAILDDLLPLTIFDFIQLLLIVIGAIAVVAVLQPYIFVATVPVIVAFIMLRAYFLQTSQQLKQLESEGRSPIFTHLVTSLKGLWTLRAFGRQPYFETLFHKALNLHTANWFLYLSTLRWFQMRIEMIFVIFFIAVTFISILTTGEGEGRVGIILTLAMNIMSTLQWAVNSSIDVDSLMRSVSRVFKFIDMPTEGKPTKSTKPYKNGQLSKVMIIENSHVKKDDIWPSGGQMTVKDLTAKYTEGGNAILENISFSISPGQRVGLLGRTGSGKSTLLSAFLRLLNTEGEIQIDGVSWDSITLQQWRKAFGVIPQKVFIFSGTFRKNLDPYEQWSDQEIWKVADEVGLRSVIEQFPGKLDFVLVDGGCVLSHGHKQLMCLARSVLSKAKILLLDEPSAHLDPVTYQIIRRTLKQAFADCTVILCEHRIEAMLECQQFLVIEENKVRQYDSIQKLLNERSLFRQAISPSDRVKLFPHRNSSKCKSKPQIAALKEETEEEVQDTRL

Row | SMILES | Maximum % activity (with co-corrector) [1] | EC50 [2] | EC50 (without co-corrector) [3] | Emax [3] | EC50 [4] | EC50 (with co-corrector) [1]
1 | O=C(NS(=O)(=O)c1cccc2ncccc12)C1(c2cc(C3CCC3)cnc2N2CCOCC2)CC1 [GII-28, 1-[5-cyclobutyl-2-(morpholin-4-yl)pyridin-3-yl]-N-(quinoline-5-sulfonyl)cyclopropane-1-carboxamide] | ++ (≥150 and <350) | 3 to 10 µM | ++^a | 50 to 150% | – | –
2 | O=C(NS(=O)(=O)c1cccc2c1CCCN2)C1(c2cc(C3CC3)cnc2N2CCCC2)CC1 [GII-29, 1-[5-cyclopropyl-2-(pyrrolidin-1-yl)pyridin-3-yl]-N-(1,2,3,4-tetrahydroquinoline-5-sulfonyl)cyclopropane-1-carboxamide] | +++ (≥350) | 3 to 10 µM | – | > 150% | 3 to 10 µM | –
3 | CCc1cnc(N2CCCC2)c(C2(C(=O)NS(=O)(=O)c3cccc4ncccc34)CC2)c1 [GII-30, 1-[5-ethyl-2-(pyrrolidin-1-yl)pyridin-3-yl]-N-(quinoline-5-sulfonyl)cyclopropane-1-carboxamide] | +++ (≥350) | 3 to 10 µM | – | > 150% | 3 to 10 µM | –
4 | CCc1cnc(N2CCCC2)c(C2(C(=O)NS(=O)(=O)c3cccc4nc(C)ccc34)CC2)c1 [GII-31, 1-[5-ethyl-2-(pyrrolidin-1-yl)pyridin-3-yl]-N-(2-methylquinoline-5-sulfonyl)cyclopropane-1-carboxamide] | +++ (≥350) | 3 to 10 µM | – | > 150% | 3 to 10 µM | –
5 | CCc1cnc(N2CCOCC2)c(C2(C(=O)NS(=O)(=O)c3cccc4nc(C)ccc34)CC2)c1 [GII-32, 1-[5-ethyl-2-(morpholin-4-yl)pyridin-3-yl]-N-(2-methylquinoline-5-sulfonyl)cyclopropane-1-carboxamide] | ++ (≥150 and <350) | – | ++^a | 50 to 150% | – | ++^a
6 | O=C(NS(=O)(=O)c1cccc2ncccc12)C1(c2cccnc2N2CCCC2)CC1 [GII-33, 1-[2-(pyrrolidin-1-yl)pyridin-3-yl]-N-(quinoline-5-sulfonyl)cyclopropane-1-carboxamide] | ++ (≥150 and <350) | – | ++^a | 50 to 150% | – | ++^a
7 | Cc1ccc2c(S(=O)(=O)NC(=O)C3(c4cccnc4N4CCCC4)CC3)cccc2n1 [GII-34, N-(2-methylquinoline-5-sulfonyl)-1-[2-(pyrrolidin-1-yl)pyridin-3-yl]cyclopropane-1-carboxamide] | ++ (≥150 and <350) | – | ++^a | 50 to 150% | – | ++^a
8 | CCc1cnc(N2CCCC2)c(C2(C(=O)NS(=O)(=O)c3cccc4c3CCCN4)CC2)c1 [GII-35, 1-[5-ethyl-2-(pyrrolidin-1-yl)pyridin-3-yl]-N-(1,2,3,4-tetrahydroquinoline-5-sulfonyl)cyclopropane-1-carboxamide] | ++ (≥150 and <350) | 3 to 10 µM | – | > 150% | 3 to 10 µM | –
9 | Cc1cnc(N2CCCC2)c(C2(C(=O)NS(=O)(=O)c3cccc4nc(C)ccc34)CC2)c1 [GII-36, 1-[5-methyl-2-(pyrrolidin-1-yl)pyridin-3-yl]-N-(2-methylquinoline-5-sulfonyl)cyclopropane-1-carboxamide] | +++ (≥350) | 3 to 10 µM | – | 50 to 150% | 3 to 10 µM | –
10 | Cc1cnc(N2CCCC2)c(C2(C(=O)NS(=O)(=O)c3cccc4[nH]ccc34)CC2)c1 [GII-37, N-(1H-indole-4-sulfonyl)-1-[5-methyl-2-(pyrrolidin-1-yl)pyridin-3-yl]cyclopropane-1-carboxamide] | +++ (≥350) | 3 to 10 µM | – | > 150% | 3 to 10 µM | –
11 | Cc1cnc(N2CCCC2)c(C2(C(=O)NS(=O)(=O)c3cccc4ncccc34)CC2)c1 [GII-38, 1-[5-methyl-2-(pyrrolidin-1-yl)pyridin-3-yl]-N-(quinoline-5-sulfonyl)cyclopropane-1-carboxamide] | +++ (≥350) | 3 to 10 µM | – | > 150% | 3 to 10 µM | –
12 | Cc1cnc(C2(C(=O)NS(=O)(=O)c3cccc4[nH]ccc34)CC2)c(C2CC2)c1 [GII-39, 1-(3-cyclopropyl-5-methylpyridin-2-yl)-N-(1H-indole-4-sulfonyl)cyclopropane-1-carboxamide] | ++ (≥150 and <350) | 3 to 10 µM | – | 50 to 150% | 3 to 10 µM | –
13 | COc1cnc(N2CCCC2)c(C2(C(=O)NS(=O)(=O)c3cccc4ncccc34)CC2)c1 [GII-40, 1-[5-methoxy-2-(pyrrolidin-1-yl)pyridin-3-yl]-N-(quinoline-5-sulfonyl)cyclopropane-1-carboxamide] | +++ (≥350) | 3 to 10 µM | – | > 150% | 3 to 10 µM | –

Results, then the molecule that gave them:

Row | Maximum % activity (with co-corrector) [1] | EC50 [2] | EC50 (without co-corrector) [3] | Emax [3] | EC50 [4] | EC50 (with co-corrector) [1] | SMILES
14 | +++ (≥350) | 3 to 10 µM | – | 50 to 150% | 3 to 10 µM | – | Cc1cnc(N(C)C)c(C2(C(=O)NS(=O)(=O)c3cccc4ncccc34)CC2)c1 [GII-41, 1-[2-(dimethylamino)-5-methylpyridin-3-yl]-N-(quinoline-5-sulfonyl)cyclopropane-1-carboxamide]
15 | ++ (≥150 and <350) | 3 to 10 µM | ++^a | 50 to 150% | – | – | COCCOc1ncc(OC)cc1C1(C(=O)NS(=O)(=O)c2cccc3nc(C)ccc23)CC1 [GII-42, 1-[5-methoxy-2-(2-methoxyethoxy)pyridin-3-yl]-N-(2-methylquinoline-5-sulfonyl)cyclopropane-1-carboxamide]
16 | ++ (≥150 and <350) | 3 to 10 µM | ++^a | 50 to 150% | – | – | COCCOc1ncc(OC)cc1C1(C(=O)NS(=O)(=O)c2cccc3[nH]ccc23)CC1 [GII-43, N-(1H-indole-4-siilfonyl)-1-[5-methoxy-2-(2-methoxyethoxy)pyridin-3-yl]cyclopropane-1-carboxamide]
17 | ++ (≥150 and <350) | – | ++^a | 50 to 150% | – | ++^a | COCCOc1ncc(OC)cc1C1(C(=O)NS(=O)(=O)c2cccc3ncccc23)CC1 [GII-44, 1-[5-methoxy-2-(2-methoxyethoxy)pyridin-3-yl]-N-(quinoline-5-sulfonyl)cyclopropane-1-carboxamide]
18 | +++ (≥350) | 3 to 10 µM | – | > 150% | 3 to 10 µM | – | COCCOc1cnc(OC)cc1C1(C(=O)NS(=O)(=O)c2cccc3[nH]ccc23)CC1 [GII-45, N-(1H-indole-4-sulfonyl)-1-[2-methoxy-5-(2-methoxyethoxy)pyridin-4-yl]cyclopropane-1-carboxamide]
19 | ++ (≥150 and <350) | 3 to 10 µM | ++^a | 50 to 150% | – | – | COCCOc1cnc(OC)cc1C1(C(=O)NS(=O)(=O)c2cccc3nc(C)ccc23)CC1 [GII-46, 1-[2-methoxy-5-(2-methoxyethoxy)pyridin-4-yl]-N-(2-methylquinoline-5-sulfonyl)cyclopropane-1-carboxamide]
20 | +++ (≥350) | > 10 µM | – | > 150% | 3 to 10 µM | – | CCc1cnc(N(C)C)c(C2(C(=O)NS(=O)(=O)c3cccc4ncccc34)CC2)c1 [GII-47, 1-[2-(dimethylamino)-5-ethylpyridin-3-yl]-N-(quinoline-5-sulfonyl)cyclopropane-1-carboxamide]
21 | +++ (≥350) | 3 to 10 µM | – | > 150% | 3 to 10 µM | – | CCc1cnc(N(C)C)c(C2(C(=O)NS(=O)(=O)c3cccc4nc(C)ccc34)CC2)c1 [GII-48, 1-[2-(dimethylamino)-5-ethylpyridin-3-yl]-N-(2-methylquinoline-5-sulfonyl)cyclopropane-1-carboxamide]
22 | +++ (≥350) | 3 to 10 µM | – | > 150% | 3 to 10 µM | – | CCc1cnc(N(C)C)c(C2(C(=O)NS(=O)(=O)c3cccc4[nH]ccc34)CC2)c1 [GII-49, 1-[2-(dimethylamino)-5-ethylpyridin-3-yl]-N-(1H-indole-4-sulfonyl)cyclopropane-1-carboxamide]
23 | +++ (≥350) | 3 to 10 µM | ++^a | > 150% | – | – | COCCOc1ncc(C)cc1C1(C(=O)NS(=O)(=O)c2cccc3nc(C)ccc23)CC1 [GII-50, 1-[2-(2-methoxyethoxy)-5-methylpyridin-3-yl]-N-(2-methylquinoline-5-sulfonyl)cyclopropane-1-carboxamide]
24 | ++ (≥150 and <350) | 3 to 10 µM | ++^a | 50 to 150% | – | – | CC(C)Oc1ccc(C2(C(=O)NS(=O)(=O)c3cccc4ncccc34)CC2)c(N(C)C)n1 [GII-51, 1-{2-(dimethylamino)-6-[(propan-2-yl)oxy]pyridin-3-yl}-N-(quinoline-5-sulfonyl)cyclopropane-1-carboxamide]
25 | ++ (≥150 and <350) | 3 to 10 µM | – | 50 to 150% | 3 to 10 µM | – | COCCOc1ncc(C)cc1C1(C(=O)NS(=O)(=O)c2cccc3ncccc23)CC1 [GII-52, 1-[2-(2-methoxyethoxy)-5-methylpyridin-3-yl]-N-(quinoline-5-sulfonyl)cyclopropane-1-carboxamide]
